For test [1], the system named is angiotensin II infused rats. The experiment in a line: Assay A angiotensin II infusion model: heart histology (coronary vascular inflammation, myocardial injury). The test is classed as in vivo, rat. The following applies: out of ten animals per group; angiotensin II/salt, 4 weeks; eplerenone 100 mpk.
Test [2] has as its system angiotensin II infused rats. The experiment in a line: Assay A angiotensin II infusion model: systolic blood pressure by tail-cuff. The test is classed as in vivo, rat. The following applies: Wistar rats, 1% NaCl, angiotensin II 25 ng/min sc; eplerenone 100 mpk; 4 weeks. The procedure: Assay A: In Vivo Angiotensin II Infusion Model
Male Wistar rats (n—50, 10/group; BW=200 g)
2. Angiotensin 11 (25 ng/min, sc via aizet minipump)
SBP measured by tail-cuff every week

Consider “angiotensin II: angiotensin II, 25 ng/min sc via minipump, used to induce hypertension with vascular inflammation in rats (DRVYIHPF; Angiotensin-2; UniProt P01015 25-32, looked up) [reference compound]”, for which, in test [1], the “Animals with vascular inflammatory lesions in the coronary arteries” value is reported as “Seven out of the ten”. Moreover, the Systolic Blood Pressure result in test [2] is listed as “Systolic blood pressure increased”.

The record behind these values is patent publication US20030162759A1, “Aldosterone blocker therapy to prevent or treat inflammation-related disorders” (priority 2000, published 2003).
